The structures appear in SMILES notation. Active and inactive are the calls of the source. The rule behind the calls is not given here.

For assay [1], the species on record is Rattus norvegicus. In words: Inhibition of C-terminal Hsp90 in rat 50B11 cells assessed as increase in Hsp70 expression at 0.1 to 1 uM after 24 hrs by Western blot analysis. It counts as cell-based. A general note: Immunoblotting shows a protein as a band on a membrane.
The species entered for assay [2] is Rattus norvegicus. As to the kind of experiment: Neuroprotective activity against H2O2-induced mitochondrial dysfunction in rat 50B11 cells assessed as improvement in mitochondrial biogenesis by measuring increase in maximal respiratory capacity pretreated for 24 hrs followed by H2O2 challenge and measured after 2 hrs. It counts as functional, cell-based.

Turning to `CO[C@@H]1[C@@H](O)[C@@H](O)[C@H](Oc2ccc(CCNC(C)=O)c(-c3cccc(F)c3)c2)OC1(C)C`, in the assay filed under Rattus norvegicus [1], the inhibition result is “Active”. Besides, the Activity result in the assay filed under Rattus norvegicus [2] is “Dose-dependent effect”.

For the compound `CO[C@@H]1[C@@H](O)[C@@H](O)[C@H](Oc2ccc(CCNC(C)=O)c3c4cccc(F)c4c(=O)n(C)c23)OC1(C)C`, the inhibition result in the assay listed under Rattus norvegicus [1] is “Active”. The Activity result in the assay filed under Rattus norvegicus [2] was “Dose-dependent effect”.

The record behind these values is ChEMBL document CHEMBL4229401, “Synthesis and evaluation of a ring-constrained Hsp90 C-terminal inhibitor that exhibits neuroprotective activity” (Bioorg Med Chem Lett, 2018).
